{"source": "patent US20130150323A1", "about": "“USE OF ORAL HEPARIN PREPARATIONS TO TREAT URINARY TRACT DISEASES AND CONDITIONS” (Urigen Pharmaceuticals, Inc, priority 2010, published 2013)", "origin": "cited, not measured here", "key": {"[1]": {"tested_on": "cancer patients"}, "[2]": {"tested_on": "IC patients", "conditions": "intravesical instillations"}, "[3]": {"tested_on": "IC patients", "conditions": "intravesical"}, "[4]": {"tested_on": "bladder mucus layer of normal human volunteers", "conditions": "intravesically administered; 0.4 M potassium solution"}, "[5]": {"conditions": "oral"}, "[6]": {"tested_on": "interstitial cystitis patients", "conditions": "oral, double blind studies, 16% on placebo"}}, "note": "Read-outs that look alike come from different tables or passages of the source.", "data": [{"compound": "O=S(=O)(O)CCS", "note": "[Mesnex, mesna]", "values": [{"measurement": "frequency of adverse events (all AEs)", "setting": "[1]; IV", "result": 85, "unit": "%"}, {"measurement": "frequency of adverse events (all AEs)", "setting": "[1]; oral", "result": 89, "unit": "%"}]}, {"compound": "C[S+](C)[O-]", "note": "[DMSO, dimethylsulfoxide]", "values": [{"measurement": "IC patients treated with benefit", "setting": "[2]", "result": "~50", "unit": "%"}]}, {"compound": "heparin", "values": [{"measurement": "patients treated in whom effective", "setting": "[3]", "result": "approximately 50%"}, {"measurement": "effect on protamine chemical injury of mucus layer (potassium absorption, urgency and pain)", "setting": "[4]", "result": "reversed"}]}, {"compound": "pentosanpolysulfate", "values": [{"measurement": "availability of this drug orally", "setting": "[5]", "result": "2-3%"}, {"measurement": "good response, patients on active drug", "setting": "[6]", "result": 34, "unit": "%"}]}]}
